The values that follow come from patent US20230072683A1, “PYRIDO-PYRIMIDIN DERIVATIVES AND PHARMACEUTICAL COMPOSITION, FOR USE IN PREVENTING OR TREATING PI3 KINASE RELATED DISEASES, COMPRISING SAME AS ACTIVE INGREDIENT” (BORYUNG PHARMACEUTICAL CO., LTD, priority 2019, published 2023).

Test [1] deals with PI3K-δ (PI3K(p1108/p857) (h)) (Homo sapiens, UniProt O00329). In words: Evaluation of inhibitory activity against PI3K-δ (HTRF kinase assay). The class given is biochemical. Particulars: for inhibition at 0.01 µM: compound concentration 0.01 μM, read-out: EXP_VALUE(% Inhibition) PI3K-δ 0.01 μM; for inhibition at 0.1 µM: compound concentration 0.1 μM, read-out: EXP_VALUE(% Inhibition) PI3K-δ 0.1 μM. In outline:
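HTRF read-out (665/620 nm ratio ×10000) used Eu-labelled anti-GST, GST-tagged GRP1 PH domain and streptavidin-allophycocyanin after EDTA/PIP3 stop.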
For orientation: Time-resolved FRET reads energy transfer from a long-lived donor to a nearby acceptor.

For a further test, the target named is DNA-PK(h) (Homo sapiens, UniProt P78527). Put plainly: Evaluation of inhibitory activity against DNA-PK (HTRF kinase assay, GST-cMyc-p53 substrate). To be noted: for inhibition at 0.01 µM: compound concentration 0.01 μM, read-out: EXP_VALUE(% Inhibition) DNA-PK(h) 0.01 μM; for inhibition at 0.1 µM: compound concentration 0.1 μM, read-out: EXP_VALUE(% Inhibition) DNA-PK(h) 0.1 μM. The format is biochemical. In outline:
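p53 Ser15 phosphorylation by human DNA-PK was measured by time-resolved FRET ratio (665/620 nm ×10000) using Eu-labelled anti-phospho-Ser15 and d2 anti-GST antibodies. Substrate GST-cMyc-p53 at 50 μM; Mg/ATP-initiated, 30 min at room temperature, EDTA stop.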

Chain of PI3K-δ (PI3K(p1108/p857) (h)) (O00329 whole entry, the tested form may be a part): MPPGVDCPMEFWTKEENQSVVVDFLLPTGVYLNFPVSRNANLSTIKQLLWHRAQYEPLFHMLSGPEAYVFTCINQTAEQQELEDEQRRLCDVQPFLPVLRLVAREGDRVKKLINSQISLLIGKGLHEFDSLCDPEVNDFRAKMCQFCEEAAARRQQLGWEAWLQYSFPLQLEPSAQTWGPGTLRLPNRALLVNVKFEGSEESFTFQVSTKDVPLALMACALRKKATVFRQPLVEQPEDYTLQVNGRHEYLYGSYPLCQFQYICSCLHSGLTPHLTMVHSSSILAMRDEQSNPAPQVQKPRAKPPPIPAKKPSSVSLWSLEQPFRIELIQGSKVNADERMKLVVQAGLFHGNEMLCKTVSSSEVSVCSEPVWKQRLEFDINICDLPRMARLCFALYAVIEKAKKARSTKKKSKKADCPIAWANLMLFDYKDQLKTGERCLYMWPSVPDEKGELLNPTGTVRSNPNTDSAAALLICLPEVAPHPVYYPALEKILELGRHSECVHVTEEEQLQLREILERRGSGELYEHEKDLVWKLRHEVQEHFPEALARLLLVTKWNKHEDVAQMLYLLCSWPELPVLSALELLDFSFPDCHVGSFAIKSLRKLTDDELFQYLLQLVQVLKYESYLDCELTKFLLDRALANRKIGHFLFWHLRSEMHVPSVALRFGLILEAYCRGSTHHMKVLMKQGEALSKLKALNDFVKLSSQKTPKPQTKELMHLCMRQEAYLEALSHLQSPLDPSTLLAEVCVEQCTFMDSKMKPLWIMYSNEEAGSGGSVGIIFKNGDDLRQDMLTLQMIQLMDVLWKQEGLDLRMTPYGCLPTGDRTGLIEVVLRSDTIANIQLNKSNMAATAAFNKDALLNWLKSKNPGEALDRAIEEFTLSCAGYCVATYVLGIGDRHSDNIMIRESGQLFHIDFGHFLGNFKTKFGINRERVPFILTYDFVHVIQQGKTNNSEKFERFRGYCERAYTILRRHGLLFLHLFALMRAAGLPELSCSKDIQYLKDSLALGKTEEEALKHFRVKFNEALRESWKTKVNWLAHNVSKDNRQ
Chain of PI3K-δ (PI3K(p1108/p857) (h)) (P27986 whole entry partner, the tested form may be a part): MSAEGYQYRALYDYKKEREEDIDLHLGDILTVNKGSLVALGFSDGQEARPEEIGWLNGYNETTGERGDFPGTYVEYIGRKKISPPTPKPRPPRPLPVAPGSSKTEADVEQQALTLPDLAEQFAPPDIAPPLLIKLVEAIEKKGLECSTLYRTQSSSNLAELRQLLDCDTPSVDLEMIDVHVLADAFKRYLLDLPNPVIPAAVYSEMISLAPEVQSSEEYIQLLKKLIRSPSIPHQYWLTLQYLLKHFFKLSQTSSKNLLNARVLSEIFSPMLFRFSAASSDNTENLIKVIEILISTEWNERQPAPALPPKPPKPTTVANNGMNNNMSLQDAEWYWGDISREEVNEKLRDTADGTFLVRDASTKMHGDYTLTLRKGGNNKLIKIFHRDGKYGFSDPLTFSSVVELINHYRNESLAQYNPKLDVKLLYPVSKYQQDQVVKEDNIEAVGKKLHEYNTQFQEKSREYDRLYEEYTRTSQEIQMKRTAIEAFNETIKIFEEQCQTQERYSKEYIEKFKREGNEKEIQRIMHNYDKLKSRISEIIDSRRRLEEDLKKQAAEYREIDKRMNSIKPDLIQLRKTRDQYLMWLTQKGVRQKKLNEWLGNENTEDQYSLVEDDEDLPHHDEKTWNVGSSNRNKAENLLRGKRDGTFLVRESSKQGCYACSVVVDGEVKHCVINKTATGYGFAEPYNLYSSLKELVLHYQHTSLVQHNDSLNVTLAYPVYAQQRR

As usually defined, the inhibition is the drop in the measured response relative to a control, in per cent. On to `C[C@H](Nc1ncnc2[nH]ccc(=O)c12)c1c(Cl)c2cccc(-c3ccc(-c4ccncc4)cc3)c2c(=O)n1-c1ccccc1` [Example 105, (S)-4-((1-(4-chloro-1-oxo-2-phenyl-8-(4-(pyridin-4-yl)phenyl)-1,2-dihydroisoquinolin-3-yl)ethyl)amino)pyrido[2,3-d]pyrimidin-5(8H)-one], for which, in test [1], the inhibition at 0.01 µM came out at 75% and the inhibition at 0.1 µM amounted to 103%. Further, at DNA-PK(h), the inhibition at 0.01 µM stood at 12% and the inhibition at 0.1 µM turned out to be 75%.
Consider `C[C@H](Nc1ncnc2[nH]ccc(=O)c12)c1c(Cl)c2cccc(-c3cccc(F)c3Cl)c2c(=O)n1-c1ccccc1` [Example 106, (S)-4-((1-(4-chloro-8-(2-chloro-3-fluorophenyl)-1-oxo-2-phenyl-1,2-dihydroisoquinolin-3-yl)ethyl)amino)pyrido[2,3-d]pyrimidin-5(8H)-one], for which, in test [1], the inhibition at 0.01 µM was 53% and the inhibition at 0.1 µM was determined as 87%. Also, on DNA-PK(h), the inhibition at 0.01 µM turned out to be 14% and the inhibition at 0.1 µM is 59%.
Regarding `C[C@H](Nc1ncnc2[nH]ccc(=O)c12)c1c(Cl)c2cccc(-c3cc(F)ccc3Cl)c2c(=O)n1-c1ccccc1` [Example 107, (S)-4-((1-(4-chloro-8-(2-chloro-5-fluorophenyl)-1-oxo-2-phenyl-1,2-dihydroisoquinolin-3-yl)ethyl)amino)pyrido[2,3-d]pyrimidin-5(8H)-one], in test [1], the inhibition at 0.01 µM stood at 59% and the inhibition at 0.1 µM came out at 91%. For the same molecule, at DNA-PK(h), the inhibition at 0.01 µM came out at 24% and the inhibition at 0.1 µM stood at 54%.
As for `C[C@H](Nc1ncnc2[nH]ccc(=O)c12)c1c(Cl)c2cccc(-c3cc(O)cc(F)c3)c2c(=O)n1-c1ccccc1` [Example 108, (S)-4-((1-(4-chloro-8-(3-fluoro-5-hydroxyphenyl)-1-oxo-2-phenyl-1,2-dihydroisoquinolin-3-yl)ethyl)amino)pyrido[2,3-d]pyrimidin-5(8H)-one], in test [1], the inhibition at 0.01 µM was 99% and the inhibition at 0.1 µM was determined as 102%. Moreover, on DNA-PK(h), the inhibition at 0.01 µM was 7% and the inhibition at 0.1 µM was found to be 66%.
Turning to `Cc1c(F)cccc1-c1cccc2c(Cl)c([C@H](C)Nc3ncnc4[nH]ccc(=O)c34)n(-c3ccccc3)c(=O)c12` [Example 109, (S)-4-((1-(4-chloro-8-(3-fluoro-2-methylphenyl)-1-oxo-2-phenyl-1,2-dihydroisoquinolin-3-yl)ethyl)amino)pyrido[2,3-d]pyrimidin-5(8H)-one], in test [1], the inhibition at 0.01 µM was found to be 61% and the inhibition at 0.1 µM turned out to be 94%. For the same molecule, at DNA-PK(h), the inhibition at 0.01 µM stood at 10% and the inhibition at 0.1 µM was determined as 65%.
For `Cc1ncccc1-c1cccc2c(Cl)c([C@H](C)Nc3ncnc4[nH]ccc(=O)c34)n(-c3ccccc3)c(=O)c12` [Example 110, (S)-4-((1-(4-chloro-8-(2-methylpyridin-3-yl)-1-oxo-2-phenyl-1,2-dihydroisoquinolin-3-yl)ethyl)amino)pyrido[2,3-d]pyrimidin-5(8H)-one], in test [1], the inhibition at 0.01 µM came to 93% and the inhibition at 0.1 µM was found to be 97%. For the same molecule, on DNA-PK(h), the inhibition at 0.01 µM worked out at 57% and the inhibition at 0.1 µM was found to be 91%.
On to `C[C@H](Nc1ncnc2[nH]ccc(=O)c12)c1c(Cl)c2cccc(-c3ccc4ncn(C)c4c3)c2c(=O)n1-c1ccccc1` [Example 111, (S)-4-((1-(4-chloro-8-(1-methyl-1H-benzo[d]imidazol-6-yl)-1-oxo-2-phenyl-1,2-dihydroisoquinolin-3-yl)ethyl)amino)pyrido[2,3-d]pyrimidin-5(8H)-one], for which, in test [1], the inhibition at 0.01 µM turned out to be 80% and the inhibition at 0.1 µM worked out at 96%. Also, on DNA-PK(h), the inhibition at 0.01 µM turned out to be 87% and the inhibition at 0.1 µM was found to be 98%.
Regarding `C[C@H](Nc1ncnc2[nH]ccc(=O)c12)c1c(Cl)c2cccc(-c3cnc(N(C)C)nc3)c2c(=O)n1-c1ccccc1` [Example 112, (S)-4-((1-(4-chloro-8-(2-(dimethylamino)pyrimidin-5-yl)-1-oxo-2-phenyl-1,2-dihydroisoquinolin-3-yl)ethyl)amino)pyrido[2,3-d]pyrimidin-5(8H)-one], the inhibition at 0.01 µM turned out to be 92% in test [1] and 78% at DNA-PK(h). In addition, the inhibition at 0.1 µM in test [1] is 96%; at DNA-PK(h), 97%.
`C[C@H](Nc1ncnc2[nH]ccc(=O)c12)c1c(Cl)c2cccc(-c3ccc4nccn4c3)c2c(=O)n1-c1ccccc1` [Example 113, (S)-4-((1-(4-chloro-8-(imidazo[1,2-a]pyridin-6-yl)-1-oxo-2-phenyl-1,2-dihydroisoquinolin-3-yl)ethyl)amino)pyrido[2,3-d]pyrimidin-5(8H)-one]: in test [1], the inhibition at 0.01 µM amounted to 82% and the inhibition at 0.1 µM worked out at 93%. Besides, on DNA-PK(h), the inhibition at 0.01 µM is 79% and the inhibition at 0.1 µM was 98%.
Consider `C[C@H](Nc1ncnc2[nH]ccc(=O)c12)c1c(Cl)c2cccc(-c3ccc4c(c3)ncn4C)c2c(=O)n1-c1ccccc1` [Example 114, (S)-4-((1-(4-chloro-8-(1-methyl-1H-benzo[d]imidazol-5-yl)-1-oxo-2-phenyl-1,2-dihydroisoquinolin-3-yl)ethyl)amino)pyrido[2,3-d]pyrimidin-5(8H)-one], for which, in test [1], the inhibition at 0.01 µM was 87% and the inhibition at 0.1 µM amounted to 95%. On DNA-PK(h), the inhibition at 0.01 µM was found to be 77% and the inhibition at 0.1 µM turned out to be 97%.
The matching figures for `C[C@H](Nc1ncnc2[nH]ccc(=O)c12)c1c(Cl)c2cccc(-c3ccc(-c4ccccc4)nc3)c2c(=O)n1-c1ccccc1` [Example 115, (S)-4-((1-(4-chloro-1-oxo-2-phenyl-8-(6-phenylpyridin-3-yl)-1,2-dihydroisoquinolin-3-yl)ethyl)amino)pyrido[2,3-d]pyrimidin-5(8H)-one]: 78%, 96%, 15% and 72%.
With `C[C@H](Nc1ncnc2[nH]ccc(=O)c12)c1c(Cl)c2cccc(-c3ccc4c(ccn4C)c3)c2c(=O)n1-c1ccccc1` [Example 116, (S)-4-((1-(4-chloro-8-(1-methyl-1H-indol-5-yl)-1-oxo-2-phenyl-1,2-dihydroisoquinolin-3-yl)ethyl)amino)pyrido[2,3-d]pyrimidin-5(8H)-one], the inhibition at 0.01 µM in test [1] came to 73%; at DNA-PK(h) it was 32%. For the same molecule, the inhibition at 0.1 µM in test [1] came to 101%; on DNA-PK(h), 91%.
For the molecule `C[C@H](Nc1ncnc2[nH]ccc(=O)c12)c1c(Cl)c2cccc(-c3ccco3)c2c(=O)n1-c1ccccc1` [Example 117, (S)-4-((1-(4-chloro-8-(furan-2-yl)-1-oxo-2-phenyl-1,2-dihydroisoquinolin-3-yl)ethyl)amino)pyrido[2,3-d]pyrimidin-5(8H)-one], in test [1], the inhibition at 0.01 µM was found to be 82% and the inhibition at 0.1 µM came to 89%. Moreover, at DNA-PK(h), the inhibition at 0.01 µM is 86% and the inhibition at 0.1 µM was found to be 99%.
Taken in the same sequence, the figures for `C[C@H](Nc1ncnc2[nH]ccc(=O)c12)c1c(Cl)c2cccc(-c3ccc(C4CCC4)cc3)c2c(=O)n1-c1ccccc1` [Example 118, (S)-4-((1-(4-chloro-8-(4-cyclobutylphenyl)-1-oxo-2-phenyl-1,2-dihydroisoquinolin-3-yl)ethyl)amino)pyrido[2,3-d]pyrimidin-5(8H)-one] were 29%, 81%, 26% and 74%.
For the molecule `Cc1cncc(-c2cccc3c(Cl)c([C@H](C)Nc4ncnc5[nH]ccc(=O)c45)n(-c4ccccc4)c(=O)c23)c1` [Example 119, (S)-4-((1-(4-chloro-8-(5-methylpyridin-3-yl)-1-oxo-2-phenyl-1,2-dihydroisoquinolin-3-yl)ethyl)amino)pyrido[2,3-d]pyrimidin-5(8H)-one], in test [1], the inhibition at 0.01 µM was 84% and the inhibition at 0.1 µM was determined as 82%. Also, at DNA-PK(h), the inhibition at 0.01 µM was 96% and the inhibition at 0.1 µM came out at 101%.
Take `C[C@H](Nc1ncnc2[nH]ccc(=O)c12)c1c(Cl)c2cccc(-c3ccc4c(c3)OCCN4)c2c(=O)n1-c1ccccc1` [Example 120, (S)-4-((1-(4-chloro-8-(3,4-dihydro-2H-benzo[b][1,4]oxazin-7-yl)-1-oxo-2-phenyl-1,2-dihydroisoquinolin-3-yl)ethyl)amino)pyrido[2,3-d]pyrimidin-5(8H)-one]: in test [1], the inhibition at 0.01 µM was determined as 65% and the inhibition at 0.1 µM came to 95%. At DNA-PK(h), the inhibition at 0.01 µM was determined as 72% and the inhibition at 0.1 µM was 98%.
Regarding `C[C@H](Nc1ncnc2[nH]ccc(=O)c12)c1c(Cl)c2cccc(-c3ccc4ncccc4c3)c2c(=O)n1-c1ccccc1` [Example 121, (S)-4-((1-(4-chloro-1-oxo-2-phenyl-8-(quinolin-6-yl)-1,2-dihydroisoquinolin-3-yl)ethyl)amino)pyrido[2,3-d]pyrimidin-5(8H)-one], the inhibition at 0.01 µM in test [1] came to 84%; at DNA-PK(h), 76%. The figures for the inhibition at 0.1 µM (in test [1]; on DNA-PK(h)) were 95% and 98%, respectively.
As to `C[C@H](Nc1ncnc2[nH]ccc(=O)c12)c1c(Cl)c2cccc(-c3ccccc3F)c2c(=O)n1-c1ccccc1` [Example 122, (S)-4-((1-(4-chloro-8-(2-fluorophenyl)-1-oxo-2-phenyl-1,2-dihydroisoquinolin-3-yl)ethyl)amino)pyrido[2,3-d]pyrimidin-5(8H)-one], in test [1], the inhibition at 0.01 µM was 68% and the inhibition at 0.1 µM was determined as 88%. Moreover, on DNA-PK(h), the inhibition at 0.01 µM was 61% and the inhibition at 0.1 µM was found to be 92%.
